Active and inactive are the calls of the source.
Legend:
[1] = target: Cytochrome P450 3A4 (Homo sapiens, UniProt P08684);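 note: CYP3A4 tested as one member of a cytochrome P450 panel screen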
[2] = target: Cytochrome P450 2C9 (Homo sapiens, UniProt P11712)
[3] = target: T1, Cytochrome P450 1A2 (Homo sapiens, UniProt P05177);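 note: PubChem cytochrome P450 panel assay, CYP1A2 panel member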
T1 sequence (P05177 whole entry): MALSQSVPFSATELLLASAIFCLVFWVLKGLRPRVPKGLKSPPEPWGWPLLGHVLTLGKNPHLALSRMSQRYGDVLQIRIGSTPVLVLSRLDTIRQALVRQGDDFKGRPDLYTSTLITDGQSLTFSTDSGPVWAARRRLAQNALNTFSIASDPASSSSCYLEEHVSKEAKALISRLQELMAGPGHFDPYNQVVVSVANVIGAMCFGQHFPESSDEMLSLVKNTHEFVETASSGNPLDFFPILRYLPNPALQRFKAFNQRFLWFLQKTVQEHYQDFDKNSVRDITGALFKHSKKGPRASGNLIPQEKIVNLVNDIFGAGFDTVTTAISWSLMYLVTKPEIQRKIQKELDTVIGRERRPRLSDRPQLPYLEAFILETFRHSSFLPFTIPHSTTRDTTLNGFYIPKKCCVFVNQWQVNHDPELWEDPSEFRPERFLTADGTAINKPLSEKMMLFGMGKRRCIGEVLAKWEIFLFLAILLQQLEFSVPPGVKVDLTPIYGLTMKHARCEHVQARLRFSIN

[4] = inhibitors of intracellular T. cruzi replication, confirmation, NIH3T3 host cells, beta-gal luminescence (AID 2044); assay type: functional, cell-based;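 note: intracellular parasites grown in NIH/3T3 mouse fibroblasts as host cells; luminescent beta-galactosidase reporter signal from transgenic T. cruzi replicating inside host cells; inhibitors lower the luminescence signal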
[5] = HeLa cell cytotoxicity, dose response, cytotoxicity control for MgcRacGAP inhibitor project (AID 624300); assay type: functional
[6] = target: T2, Rac GTPase-activating protein 1 (Homo sapiens, UniProt Q9H0H5); experiment: MgcRacGAP GTPase-activating activity inhibitors, confirmation, biochemical, ADP Hunter fluorescence, primary and confirmatory (AID 624330); assay type: functional
T2 sequence (Q9H0H5 whole entry): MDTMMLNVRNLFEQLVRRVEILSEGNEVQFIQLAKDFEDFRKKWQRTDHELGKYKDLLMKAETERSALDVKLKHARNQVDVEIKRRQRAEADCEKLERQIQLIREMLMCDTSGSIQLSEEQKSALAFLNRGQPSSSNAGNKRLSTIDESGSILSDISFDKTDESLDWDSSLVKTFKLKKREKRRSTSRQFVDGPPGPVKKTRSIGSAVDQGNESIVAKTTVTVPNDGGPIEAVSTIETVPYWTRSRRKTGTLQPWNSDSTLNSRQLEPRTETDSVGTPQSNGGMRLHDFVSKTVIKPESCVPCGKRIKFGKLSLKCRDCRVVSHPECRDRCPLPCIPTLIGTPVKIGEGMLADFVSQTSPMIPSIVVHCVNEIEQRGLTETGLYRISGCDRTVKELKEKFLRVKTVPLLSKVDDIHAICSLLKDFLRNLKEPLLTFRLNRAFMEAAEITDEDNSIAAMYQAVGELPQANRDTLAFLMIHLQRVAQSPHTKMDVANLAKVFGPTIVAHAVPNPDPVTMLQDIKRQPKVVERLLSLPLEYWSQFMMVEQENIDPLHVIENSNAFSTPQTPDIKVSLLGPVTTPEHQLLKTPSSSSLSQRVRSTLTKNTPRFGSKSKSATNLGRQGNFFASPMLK

[7] = cytotoxicity toward NIH3T3 fibroblasts, dose response, counter-screen, cell-based, ATP luminescence, mouse fibroblasts (AID 2010); assay type: functional;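 note: cells exposed to compound for about 90 hours before reading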
[8] = target: T3, Ubiquitin-conjugating enzyme E2 N (Homo sapiens, UniProt P61088); assay type: functional;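 note: Dose-response confirmation in a TR-FRET assay detecting UBC13-driven polyubiquitin chain formation, inhibition measured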
T3 sequence (P61088 whole entry): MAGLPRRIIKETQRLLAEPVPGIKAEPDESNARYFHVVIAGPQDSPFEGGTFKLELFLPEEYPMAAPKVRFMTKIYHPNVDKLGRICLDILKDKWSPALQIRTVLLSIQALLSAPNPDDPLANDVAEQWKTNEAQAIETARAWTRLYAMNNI

[9] = growth suppression of PTEN-null colon cells, dose response, cell-based, HCT116 PTEN knockout (AID 1047); assay type: functional;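 note: HCT116 colon tumor cells with PTEN knocked out; cells exposed to compound for 60 hours before readout; potency for loss of cell viability measured by luminescence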
[10] = growth suppression of beta-catenin-knockout colon cells, dose response, cell-based, HCT116, human colon tumor (AID 1045); assay type: functional;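 note: HCT116 colon tumor cells with beta catenin knocked out; cells exposed to compound for 60 hours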
[11] = Luminescence Cell-Based Dose Retest to Confirm Inhibitors of Cancer Stem Cells. [Related pubchem assays (depositor defined):AID2717, AID2721]; assay type: functional; conditions: Homo sapiens
[12] = target: T4, Polyadenylate-binding protein 1 (Homo sapiens, UniProt P11940); experiment: PABP1 MLLE–PAM2 interaction inhibitors, dose response, miRNA deadenylation inhibitor project, biochemical, fluorescence polarization, Cy5-PAM2 peptide, secondary (AID 602260); assay type: functional; conditions: read-out: IC50_Mean
T4 sequence (P11940 whole entry): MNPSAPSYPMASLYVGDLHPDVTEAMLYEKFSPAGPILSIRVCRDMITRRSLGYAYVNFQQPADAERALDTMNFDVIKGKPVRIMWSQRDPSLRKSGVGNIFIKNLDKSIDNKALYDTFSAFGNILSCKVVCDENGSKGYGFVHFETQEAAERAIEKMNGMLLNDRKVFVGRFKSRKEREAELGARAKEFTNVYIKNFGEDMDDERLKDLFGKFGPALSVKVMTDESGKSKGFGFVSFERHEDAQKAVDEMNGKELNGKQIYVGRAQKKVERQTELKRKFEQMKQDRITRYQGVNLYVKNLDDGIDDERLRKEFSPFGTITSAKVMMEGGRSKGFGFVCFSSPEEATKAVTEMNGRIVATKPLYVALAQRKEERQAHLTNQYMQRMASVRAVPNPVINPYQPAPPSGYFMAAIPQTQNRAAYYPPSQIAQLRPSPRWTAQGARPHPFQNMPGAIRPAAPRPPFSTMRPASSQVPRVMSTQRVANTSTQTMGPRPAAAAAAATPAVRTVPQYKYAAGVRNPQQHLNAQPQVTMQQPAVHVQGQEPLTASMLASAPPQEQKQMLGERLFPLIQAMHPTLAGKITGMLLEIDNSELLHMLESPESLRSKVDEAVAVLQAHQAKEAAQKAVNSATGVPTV

[13] = target: T4, Polyadenylate-binding protein 1; experiment: PABP1 MLLE–PAM2 binding inhibitor potency, dose response, biochemical, fluorescence polarization, FITC-PAM2 peptide (AID 602259); assay type: functional; conditions: read-out: IC50_Mean
[14] = target: T5, Histone-lysine N-methyltransferase NSD2 (Homo sapiens, UniProt O96028); assay type: biochemical
T5 sequence (O96028 whole entry): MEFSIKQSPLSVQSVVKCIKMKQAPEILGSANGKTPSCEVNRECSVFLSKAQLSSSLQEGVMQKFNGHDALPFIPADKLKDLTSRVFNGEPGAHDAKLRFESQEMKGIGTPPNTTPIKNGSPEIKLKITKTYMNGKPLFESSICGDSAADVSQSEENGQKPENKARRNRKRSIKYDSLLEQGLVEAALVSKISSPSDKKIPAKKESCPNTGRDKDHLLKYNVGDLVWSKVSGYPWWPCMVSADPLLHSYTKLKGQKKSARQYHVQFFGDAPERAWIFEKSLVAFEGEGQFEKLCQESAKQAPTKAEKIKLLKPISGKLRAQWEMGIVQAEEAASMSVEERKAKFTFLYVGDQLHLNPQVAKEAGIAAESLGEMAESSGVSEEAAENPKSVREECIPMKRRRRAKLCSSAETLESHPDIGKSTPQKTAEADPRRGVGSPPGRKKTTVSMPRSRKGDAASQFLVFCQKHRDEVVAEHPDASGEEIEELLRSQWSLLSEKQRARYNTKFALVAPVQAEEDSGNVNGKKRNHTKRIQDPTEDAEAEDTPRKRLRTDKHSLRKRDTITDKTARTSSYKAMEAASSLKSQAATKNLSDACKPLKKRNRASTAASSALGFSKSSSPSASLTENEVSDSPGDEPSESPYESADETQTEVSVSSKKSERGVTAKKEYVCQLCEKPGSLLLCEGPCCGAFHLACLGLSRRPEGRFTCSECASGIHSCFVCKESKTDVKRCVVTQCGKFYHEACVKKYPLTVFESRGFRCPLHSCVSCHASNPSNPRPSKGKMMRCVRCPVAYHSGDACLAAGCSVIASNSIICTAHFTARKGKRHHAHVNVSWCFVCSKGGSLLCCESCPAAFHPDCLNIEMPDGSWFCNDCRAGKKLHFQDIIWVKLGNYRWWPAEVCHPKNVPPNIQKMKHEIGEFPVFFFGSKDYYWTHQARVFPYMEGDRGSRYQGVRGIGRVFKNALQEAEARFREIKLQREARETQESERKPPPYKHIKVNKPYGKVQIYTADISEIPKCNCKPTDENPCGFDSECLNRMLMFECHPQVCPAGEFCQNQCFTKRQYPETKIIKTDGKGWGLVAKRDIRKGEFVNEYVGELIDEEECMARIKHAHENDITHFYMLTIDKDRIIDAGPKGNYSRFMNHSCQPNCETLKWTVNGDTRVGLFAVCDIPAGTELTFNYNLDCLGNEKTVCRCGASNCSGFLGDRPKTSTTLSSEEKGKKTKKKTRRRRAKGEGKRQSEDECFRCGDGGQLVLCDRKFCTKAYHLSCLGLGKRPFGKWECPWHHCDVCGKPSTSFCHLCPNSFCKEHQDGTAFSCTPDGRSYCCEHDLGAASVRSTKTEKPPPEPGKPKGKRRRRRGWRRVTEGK

[15] = target: T6, Protein RecA (Mycobacterium tuberculosis, UniProt P9WHJ3); experiment: Fluorescence Cell-Free Homogeneous Dose Retest to Identify Inhibitors of RecA-Intein Splicing Activity. [Related pubchem assays (depositor defined):AID2097, AID2223, AID489010, AID492950]; assay type: functional
T6 sequence (P9WHJ3 whole entry): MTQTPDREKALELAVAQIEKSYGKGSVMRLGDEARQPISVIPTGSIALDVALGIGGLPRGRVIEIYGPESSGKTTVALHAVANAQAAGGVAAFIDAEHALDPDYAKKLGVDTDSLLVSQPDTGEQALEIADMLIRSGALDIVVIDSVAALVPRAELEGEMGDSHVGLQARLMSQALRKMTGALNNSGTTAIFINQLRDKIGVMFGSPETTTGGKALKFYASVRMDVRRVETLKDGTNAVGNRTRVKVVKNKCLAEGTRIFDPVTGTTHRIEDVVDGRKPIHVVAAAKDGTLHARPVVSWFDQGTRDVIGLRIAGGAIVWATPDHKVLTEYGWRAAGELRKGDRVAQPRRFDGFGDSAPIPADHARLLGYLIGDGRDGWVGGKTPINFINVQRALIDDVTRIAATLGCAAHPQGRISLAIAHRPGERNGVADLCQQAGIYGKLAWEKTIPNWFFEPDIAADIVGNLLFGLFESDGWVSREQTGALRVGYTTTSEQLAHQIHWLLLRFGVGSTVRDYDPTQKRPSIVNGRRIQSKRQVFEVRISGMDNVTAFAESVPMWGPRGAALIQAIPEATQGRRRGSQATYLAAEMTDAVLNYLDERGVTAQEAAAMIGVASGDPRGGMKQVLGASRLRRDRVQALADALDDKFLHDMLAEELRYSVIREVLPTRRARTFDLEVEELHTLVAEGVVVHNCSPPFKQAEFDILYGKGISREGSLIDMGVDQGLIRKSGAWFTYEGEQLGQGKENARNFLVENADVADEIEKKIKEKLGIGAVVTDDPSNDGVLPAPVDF

[16] = target: T7, Replicative DNA helicase DnaB (Mycobacterium tuberculosis, UniProt P9WMR3); experiment: DnaB intein splicing inhibitors, dose response, biochemical, cell-free fluorescence (AID 449749); assay type: functional
T7 sequence (P9WMR3 whole entry): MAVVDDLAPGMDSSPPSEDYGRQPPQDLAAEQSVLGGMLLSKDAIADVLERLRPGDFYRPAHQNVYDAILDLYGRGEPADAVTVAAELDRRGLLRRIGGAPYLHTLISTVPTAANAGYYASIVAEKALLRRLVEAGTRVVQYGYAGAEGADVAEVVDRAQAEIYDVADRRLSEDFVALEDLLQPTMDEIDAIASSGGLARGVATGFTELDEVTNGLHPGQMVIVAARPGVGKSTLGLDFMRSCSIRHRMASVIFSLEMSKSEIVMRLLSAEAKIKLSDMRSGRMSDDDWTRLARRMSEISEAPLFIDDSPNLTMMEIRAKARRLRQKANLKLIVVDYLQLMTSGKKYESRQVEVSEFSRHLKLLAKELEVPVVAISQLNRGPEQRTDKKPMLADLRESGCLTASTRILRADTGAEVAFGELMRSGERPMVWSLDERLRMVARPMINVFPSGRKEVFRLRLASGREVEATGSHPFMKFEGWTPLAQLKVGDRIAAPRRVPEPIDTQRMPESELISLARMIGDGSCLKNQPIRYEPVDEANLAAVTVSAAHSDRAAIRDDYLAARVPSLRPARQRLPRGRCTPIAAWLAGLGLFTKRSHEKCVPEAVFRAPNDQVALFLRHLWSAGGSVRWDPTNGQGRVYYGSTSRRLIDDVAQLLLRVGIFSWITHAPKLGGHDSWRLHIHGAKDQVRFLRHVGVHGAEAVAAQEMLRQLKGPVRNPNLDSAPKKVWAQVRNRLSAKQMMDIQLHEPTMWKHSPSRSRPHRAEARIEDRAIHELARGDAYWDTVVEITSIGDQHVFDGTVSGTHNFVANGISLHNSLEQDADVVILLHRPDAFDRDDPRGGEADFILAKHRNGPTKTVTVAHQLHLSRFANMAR

[17] = target: Cytochrome P450 2C19 (Homo sapiens, UniProt P33261); experiment: Cytochrome panel assay with activity outcomes. Panel member name: p450-cyp2c19 Compounds with AC50 equal or less than 10 uM are considered active; assay type: functional; conditions: read-out: AC50
Cytochrome P450 2C19, sequence (P33261 whole entry): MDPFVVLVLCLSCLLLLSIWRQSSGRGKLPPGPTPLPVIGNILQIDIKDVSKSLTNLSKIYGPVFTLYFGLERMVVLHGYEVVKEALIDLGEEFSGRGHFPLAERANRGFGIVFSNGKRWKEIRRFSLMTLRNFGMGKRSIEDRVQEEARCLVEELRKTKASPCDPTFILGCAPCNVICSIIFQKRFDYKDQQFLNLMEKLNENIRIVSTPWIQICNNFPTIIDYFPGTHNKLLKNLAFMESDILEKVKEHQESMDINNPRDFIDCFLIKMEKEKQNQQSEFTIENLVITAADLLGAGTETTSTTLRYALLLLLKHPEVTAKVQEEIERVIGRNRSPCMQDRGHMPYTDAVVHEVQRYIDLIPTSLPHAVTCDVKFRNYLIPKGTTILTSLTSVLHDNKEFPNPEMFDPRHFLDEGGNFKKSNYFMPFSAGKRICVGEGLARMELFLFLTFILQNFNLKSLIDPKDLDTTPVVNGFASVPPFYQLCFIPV

Cytochrome P450 2C9, sequence (P11712 whole entry): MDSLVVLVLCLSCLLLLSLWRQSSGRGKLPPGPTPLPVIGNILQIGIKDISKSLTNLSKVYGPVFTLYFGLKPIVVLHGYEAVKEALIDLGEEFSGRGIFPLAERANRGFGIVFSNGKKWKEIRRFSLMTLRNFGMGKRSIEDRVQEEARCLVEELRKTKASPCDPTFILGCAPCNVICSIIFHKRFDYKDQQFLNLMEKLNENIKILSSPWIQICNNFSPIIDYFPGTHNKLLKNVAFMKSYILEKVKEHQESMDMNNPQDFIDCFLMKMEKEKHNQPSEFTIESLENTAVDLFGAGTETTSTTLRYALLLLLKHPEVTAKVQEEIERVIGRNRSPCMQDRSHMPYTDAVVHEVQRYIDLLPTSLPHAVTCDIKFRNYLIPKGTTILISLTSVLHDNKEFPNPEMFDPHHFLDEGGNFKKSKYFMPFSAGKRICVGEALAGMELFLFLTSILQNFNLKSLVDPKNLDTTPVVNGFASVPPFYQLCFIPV
Cytochrome P450 3A4, sequence (P08684 whole entry): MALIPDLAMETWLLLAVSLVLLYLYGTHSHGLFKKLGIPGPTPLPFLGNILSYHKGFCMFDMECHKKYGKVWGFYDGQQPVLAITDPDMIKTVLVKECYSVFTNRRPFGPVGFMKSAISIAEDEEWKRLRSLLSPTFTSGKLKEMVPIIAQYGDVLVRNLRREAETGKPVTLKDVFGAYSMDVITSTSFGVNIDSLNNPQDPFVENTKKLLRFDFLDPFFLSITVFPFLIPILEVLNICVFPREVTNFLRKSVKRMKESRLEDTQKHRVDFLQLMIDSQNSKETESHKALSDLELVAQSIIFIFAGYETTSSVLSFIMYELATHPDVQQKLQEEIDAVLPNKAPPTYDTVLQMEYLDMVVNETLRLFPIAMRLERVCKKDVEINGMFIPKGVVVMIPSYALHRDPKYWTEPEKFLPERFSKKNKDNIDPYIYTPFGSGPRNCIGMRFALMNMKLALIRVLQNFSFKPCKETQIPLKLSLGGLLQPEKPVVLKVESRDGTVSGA

COc1ncc2nc(-c3cn(C)c4ccccc34)c(=O)n(-c3ccccc3)c2n1
AC50 [1]: 3.16 µM (inconclusive)
AC50 [2]: inconclusive
AC50 [3]: 5.01 µM (inconclusive)

COc1ccc(CNCCc2ccc(Cl)cc2)c(OC)c1OC
EC50 [4]: 0.462 µM (active)
CC50 [5]: 100 µM (active)
IC50 [6]: 259 µM (active)
EC50 [7]: > 60 µM (not active)

CCN(CC)S(=O)(=O)c1ccc(C(=O)NNC(=O)C2CCN(S(=O)(=O)c3ccc(Cl)cc3)CC2)cc1
IC50 [8]: > 20 µM (inactive)

N#C/C(=C/c1cn(-c2ccccc2)nc1-c1cccc(OCc2ccccc2)c1)C(=O)NCCCn1ccnc1
EC50 [4]: 1.44 µM (active)
EC50 [9]: 23.8 µM (active)
EC50 [10]: 22 µM (active)
AC50 [11]: 5.32 µM (active)
EC50 [7]: > 30 µM (not active)
IC50 [8]: > 20 µM (inactive)

CN(C=[N+](C)C)c1cccc2c1C(=O)c1ccccc1C2=O
IC50 [12]: > 66 µM (inactive)
IC50 [13]: 58.5 µM (inactive)
AC50 [14]: > 20 µM (inactive)

CCn1c(=O)c(C(=O)NCCN2CCCCC2)c(O)c2ccccc21
IC50 [8]: > 20 µM (inactive)

CCN(Cc1ccccc1)C(c1ccc(C)cc1)c1nnnn1C(C)(C)CC (stereo not drawn)
CC50 [5]: 100 µM (active)
EC50 [15]: > 380 µM (inactive)
AC50 [16]: 2.41 µM (active)

Cc1sc(N/N=C/C=C/c2ccccc2)nc1-c1ccccc1
EC50 [4]: 2.67 µM (active)
AC50 [2]: inconclusive
AC50 [3]: 3.55 µM (inconclusive)
EC50 [7]: 13.8 µM (active)

CCC12CN3CC(CC)(CN(C1)C3c1cccnc1)C2=O (stereo not drawn)
AC50 [1]: 4.47 µM (inconclusive)
AC50 [2]: inconclusive
AC50 [3]: 28.2 µM (inconclusive)

COc1ccc(C(=O)Nn2cnc3ccccc3c2=O)c(OC)c1
AC50 [2]: inconclusive
AC50 [17]: 17.8 µM (inconclusive)
AC50 [3]: 11.2 µM (inconclusive)

COc1cc2[nH]c3c(N4CCN(c5ccc(Cl)cc5)CC4)ncnc3c2cc1OC
IC50 [8]: > 20 µM (inactive)

CCN(CC)CCCNC(=O)C1CCN(C(=O)c2oc3cc4sc(N(C)C)nc4cc3c2C)CC1
AC50 [14]: > 20 µM (inactive)
